Marks after values point to notes of the source that are not given here.
How the values were obtained:
[1] = system: ovariectomized (OVX) rat model; assay: In vivo ovariectomized (OVX) rat study - micro-CT measurement; conditions: OVX rats, 35 days, positive control 0.5 mg/day; vs placebo group
Method: Two different formulas were tested in an in vivo study involving female, intact rats, aged approximately 12-14 weeks, with approximate body weights between 200-250 grams. Formula 2 included varying dosages of pomegranate extract and grape seed extract and a fixed dosage of ipriflavone as reported in Table 18. Three dosages were tested for each formula. The study utilized 8 groups of rats, with 15 rats in each group and lasted approximately 35 days.
To introduce rapid bone resorption caused by estrogen withdrawal, the ovariectomized (OVX) rat model was used in this study. […] It was important to evaluate the effect of bone resorption caused by the ovariectomy procedure so a Sham control (n=6), a group of female rats without undergoing the ovariectomy procedure, was also included in the study.
This study employed a randomized placebo controlled dose response design. A total of 120 ovariectomized rats (n=15 per group) aged ˜12-14 weeks, with body weights of approximately 200-250 grams were randomly assigned to groups for 35 days. Animals were fed at 15 grams/day, which included either a placebo diet or one of the formulas listed above, for a period of 35 days from the beginning of the experiment. […]

[2] = system: ovariectomized (OVX) rat model; assay: In vivo ovariectomized (OVX) rat study - biomechanical measurements; conditions: OVX rats, 35 days, positive control 0.5 mg/day; vs placebo group
Method: (§1) Two different formulas were tested in an in vivo study involving female, […] rats, aged approximately 12-14 weeks, with approximate body weights between 200-250 grams. Formula 2 included varying dosages of pomegranate extract and grape seed extract and a fixed dosage of ipriflavone as reported in Table 18. Three dosages were tested for each formula. The study utilized 8 groups of rats, with 15 rats in each group and lasted approximately 35 days.
Table 18 below indicates the formula given to each of the 8 test groups. The dosages in Table 18 are based on the recommended human dosages and were converted to the appropriate corresponding rat dose using the FDA conversion formula: Human equivalent dose (HED, mg/kg)=rat dose in mg/kg×(rat weight in kg/human weight in kg)^0.33 HED=rat NOAEL×(W-rat/W-human)^(1-b), b=0.67. […]
The effectiveness of the formulas on antiresorption was assessed by outcome measurements that included DEXA scan (to determine bone mineral density), biomechanical measurement (to gather bone strength and functional information), micro-CT measurement (to assess virtual bone quality and functional information), and histomorphology measurement (to assess bone quality and functional information). […] These measurements were determined after 35 days of treatment. […]

[3] = system: calvaria (skull bones) from 4 day old pups; assay: Calvarial Assay to Measure Inhibition of Bone Resorption (45Ca release); assay type: cell-based, CD-1 mice; conditions: positive control
Method: In order to label cells of newborn mice in utero, pregnant CD-1 female mice (at timed day 15) were injected with ^45Ca (25 uCi/mouse). […] The bones were incubated at 37° C. in a 5% CO2 humidified incubator for a period of 24 hours following which they were transferred to wells containing 1 ml media with factors added (IL-1, PTH and or compounds.) The treated bones were incubated under the above conditions for a further 72 hours. […] The results were expressed as % ^45Ca release and can be further reported as T/C ratios. For some factors and compounds, modification of this procedure can be used. As most of the osteoclasts are formed in the calvaria following the preincubation period, the factors that affect osteoclast formation may have a greater effect during the preincubation period. Thus, for a number of the compounds, they were included in the preincubation media.

[4] = system: ovariectomized (OVX) rat model; assay: In vivo ovariectomized (OVX) rat study - histomorphology measurement; conditions: OVX rats, 35 days, positive control 0.5 mg/day; vs placebo group
Method: as §1
Table 18 below indicates the formula given to each of the 8 test groups. […]
The effectiveness of the formulas on antiresorption was assessed by outcome measurements that included DEXA scan (to determine bone mineral density), biomechanical measurement (to gather bone strength and functional information), micro-CT measurement (to assess virtual bone quality and functional information), and histomorphology measurement (to assess bone quality and functional information). […] These measurements were determined after 35 days of treatment.
Histomorphology measurement was also used as a tool to determine the efficacy of formulas 1 and 2 where trabecular bone volume from each group was quantified. […]

Compound: NCCCC(O)(P(=O)(O)O)P(=O)(O)O [Alendronate]
- % Bone Volume/ Total Volume [1]: 632%^a
- Trabecular Number (N/6 mm^3) [1]: 313%^a
- Trabecular Separation [1]: −88%^a
- Bone Stiffness [2]: 0.2%
- Maximum Force Required to Fracture Bones [2]: −0.4%
- Inhibition of Bone Resorption/Release of Calcium By Combinations of Extracts, % Release ([3]; IL-1 + 0.1 μM): 28.50 ± 1.19 % Release
- Inhibition of Bone Resorption/Release of Calcium By Combinations of Extracts, % Release ([3]; IL-1 + 1 μM): 17.00 ± 1.15^a % Release
- Inhibition of Bone Resorption/Release of Calcium By Combinations of Extracts, % Release ([3]; IL-1 + 10 μM): 14.07 ± 1.05^a % Release
- Inhibition of Bone Resorption/Release of Calcium By Combinations of Extracts, % Release ([3]; IL-1 + 100 μM): 12.00 ± 0.17^a % Release
- % Bone Volume [4]: 214.1%^a
